Where no end group is shown, it is not given here. [ ]: non-standard residue; d: D form.
Legend:
[1] = test system: J774 macrophages; assay: [3H]cholesterol efflux from cholesterol-loaded J774 macrophages in tissue culture; type: cell-based, mouse; details: for cholesterol export enhancing activity, time course (FIG. 9) / cholesterol export enhancing activity relative to the human SAA1.1 78-96 containing liposomal formulation (FIG. 9): liposomal formulations, mouse J774 cells; for rate of [3H]cholesterol efflux into medium containing HDL: pre-incubation with liposomes containing 0.5 μM peptide, HDL as acceptor
[2] = test system: [3H]-cholesterol-loaded J774 macrophages; assay: In vivo cholesterol efflux to plasma in mice injected with [3H]-cholesterol-loaded J774 macrophages
Procedure: In these experiments, in vivo cholesterol export was determined in mice injected with J774 macrophages cholesterol-loaded with RBC membranes and [^3H]-cholesterol. Two hundred thousand macrophages in 100:1 PBS were injected into each mouse through the tail vein. At various time points thereafter, approximately 25:1 of blood were collected from the tail vein of each animal into heparinized capillary tubes. The tubes were then centrifuged for 5 minutes in an Adams Autocrit Centrifuge to separate red blood cells from plasma. Cholesterol efflux was determined by measuring the appearance of [^3H]-cholesterol in plasma by scintillation spectrometry. To study whether export of cholesterol from J774 cells to plasma was influenced by non-liposome formulated D-27mer peptide (SEQ ID NO:10), 24 hours after injection of cholesterol-loaded J774 macrophages into mice, the same animals received, by intravenous injection, 30 μg, 60 μg, 150 μg, 225 μg, 300 μg or 600 μg of D-27mer. All these amounts of D-peptides were dissolved in 100:l of phosphate buffered saline and injected through the tail vein of each animal.
Additional in vivo studies have also been conducted wherein mice were first injected intravenously with [^3H]cholesterol-laden macrophages and then injected 24 hours later with liposomes containing 0.5 μM of synthetic peptides corresponding to amino acid residues 1-20, 21-50, 51-80 or 74-103 of murine SAA2.1. Results from this study are depicted in FIG. 1. At time points indicated in the graph of FIG. 1, approximately 25 μl of blood were collected from the tail vein of each animal. The blood samples were centrifuged to separate the red blood cells from the plasma and the [^3H]-cholesterol in plasma was determined by scintillation counting. Results are mean±SEM of four determinations.
To determine cholesterol export in vivo, J774 macrophages were cholesterol-loaded with red blood cell membranes and [^3H]-cholesterol as described above. Cells were washed four times with PBS/BSA and then detached from the culture dishes. Five million cells in 200 μl DMEM were injected into control mice or inflamed mice through the tail vein. At various time points, approximately 25 μl of blood were collected from the tail vein of each animal into heparinized capillary tubes and then centrifuged for 5 minutes in an Adams Autocrit Centrifuge to separate red blood cells from plasma. Cholesterol efflux was determined by measuring the appearance of [^3H]-cholesterol in plasma by scintillation spectrometry.
J774 cells cultured in 6-well plates were enriched with cholesterol by incubating with red blood cell (RBC) membrane fragments (175:g as cholesterol) that had been previously labeled with 0.5:Ci/ml [^3H]-cholesterol at 37° C. for 24 hours in 0.2% bovine serum albumin (BSA). After loading with the labelled RBC membrane for 6 hours, cells were then washed with phosphate-buffered saline/BSA (PBS/BSA) three times followed by an 18 hour equilibration period during which monolayers were exposed to DMEM/BSA. To determine cholesterol export in vivo, J774 macrophages were cholesterol-loaded with RBC membranes and [^3H]-cholesterol as described previously above. Cells were washed four times with PBS/BSA and then detached from the culture dishes. Two hundred thousand cells in 100:l PBS were injected into mice through the tail vein. At various time points thereafter, approximately 25:l of blood were collected from the tail vein of each animal into heparinized capillary tubes. These tubes were then centrifuged for 5 minutes in an Adams Autocrit Centrifuge to separate red blood cells from plasma. Cholesterol efflux was determined by measuring the appearance of [^3H]-cholesterol in plasma by scintillation spectrometry. […]

[3] = test system: cholesterol ester hydrolase; assay: Rate of hydrolysis of cholesteryl ester in cholesterol-laden J774 cells (cholesterol ester hydrolase activity); type: cell-based, murine; details: liposomes containing 0.5 μl synthetic peptide; J774 cells; Sandoz 58-035 present
Procedure: Identification of the domain of SAA2.1 that is responsible for enhancing cholesterol ester hydrolase activity was performed in J774 cells preloaded with radio-labeled cholesteryl esters. These experiments were performed in the presence of Sandoz 58-035, an inhibitor of acyl CoA:cholesterol acyl transferase activity, to prevent re-esterification of liberated cholesterol and [^14C]oleate. Incubations proceeded for times ranging from 0 to 24 hours, following which the remaining quantities of [^14C]-labeled cholesteryl oleate in cells were measured to determine the rate of hydrolysis of cholesteryl ester. […] However, an equivalent amount of liposomes containing the synthetic peptide corresponding to amino acid residues 74-103 of murine SAA2.1 caused a 3-fold increase in cholesterol ester hydrolase activity in these cholesterol-laden murine cells. Newly confluent J774 cells were labeled with [^14C]-oleate during cholesterol loading with red blood cell membranes as described above. Cells were then incubated for up to 24 hours with 2 mL of DMEM containing 5% LPDS and 50 μg/mL of either native HDL, SAA-HDL, liposomes containing 2 μmoles of apoA-1, SAA1.1 or 2.1, or liposomes containing 0.5:mol synthetic peptides corresponding to amino acid residues 1-20 (SEQ ID NO:1), 21-50 (SEQ ID NO:2), 51-80 (SEQ ID NO:3) and 74-103 (SEQ ID NO:4) of murine SAA2.1. To determine the rate of cholesteryl ester hydrolysis, 2 μg/mL of the acyl CoA:cholesterol acyl transferase inhibitor Sandoz 58-035 (propanimide, 3-(decyldimethylsilyl)-N-[2-(4-methylphenyl)-1-phenylethyl]-(9Cl) was added during incubation with lipoproteins or liposomes to prevent […] and free cholesterol. To examine whether or not the rate of cholesteryl ester hydrolysis involved the lysosomal cholesteryl ester hydrolase, the cells were cultured in the presence of 50 μg/mL of either native HDL and chloroquine or SAA-HDL and chloroquine (100:M). Chloroquine is an agent that neutralizes the lysosomal proton gradient. At various time points, cellular lipids were extracted and analyzed for cholesteryl ester radioactivity as described above.

[4] = target: T1, acyl CoA:cholesterol acyl transferase (Mus musculus, UniProt Q61263); assay: Incorporation of [14C]oleate into cholesteryl ester in cholesterol-laden macrophages (ACAT activity); type: cell-based, murine; details: liposomes containing 0.5 μM synthetic peptide; 6 hour incubation; cholesterol-laden murine cells
T1 construct: host or cells: J774 mouse macrophages, cholesterol-loaded
T1 sequence (Q61263 1-540): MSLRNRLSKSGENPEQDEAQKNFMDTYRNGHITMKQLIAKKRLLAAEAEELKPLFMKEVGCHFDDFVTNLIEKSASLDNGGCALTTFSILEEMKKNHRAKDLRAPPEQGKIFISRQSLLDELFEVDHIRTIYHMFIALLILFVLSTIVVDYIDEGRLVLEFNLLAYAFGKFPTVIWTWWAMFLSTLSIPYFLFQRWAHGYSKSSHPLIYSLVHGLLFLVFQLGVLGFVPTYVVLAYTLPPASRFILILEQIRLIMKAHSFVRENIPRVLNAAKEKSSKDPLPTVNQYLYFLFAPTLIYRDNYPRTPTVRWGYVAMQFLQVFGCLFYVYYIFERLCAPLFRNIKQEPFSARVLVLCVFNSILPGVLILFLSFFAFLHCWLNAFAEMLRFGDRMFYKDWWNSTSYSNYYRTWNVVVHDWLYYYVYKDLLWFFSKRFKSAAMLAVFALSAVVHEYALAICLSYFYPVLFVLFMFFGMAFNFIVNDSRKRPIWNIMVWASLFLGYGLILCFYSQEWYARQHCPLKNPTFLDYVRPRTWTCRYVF
Procedure: The incorporation of [^14C]oleate into cholesteryl ester was used as a measure of acyl CoA:cholesterol acyl transferase activity to identify compositions inhibiting the enzyme activity. The relative acyl CoA:cholesterol acyl transferase activity was determined in cholesterol-laden murine cells that had been cultured in medium in the absence of liposomes or in the presence of protein-free liposomes or liposomes containing 0.5 μM synthetic peptides corresponding to amino acids 1-20, 21-50, 51-80 and 74-103 of murine SAA2.1.
To load the cells with cholesterol, nearly confluent mono-layers were washed 3 times with phosphate buffered saline containing 2 mg/mL fatty acid-free bovine serum albumin (PBS-BSA) and incubated for 5 hours in DMEM supplemented with 5% lipoprotein-depleted serum (LPDS) (d>1.25 g/mL) and 175 μg of red blood cell membrane cholesterol. For the purpose of pool equilibration of added cholesterol, cell cultures were rinsed twice with PBS-BSA and incubated overnight in DMEM containing 5% LPDS. The relative activity of acyl CoA:cholesterol acyl transferase was determined in cholesterol-laden cells that had been cultured in medium containing no liposomes, protein-free liposomes or liposomes containing 0.5:M synthetic peptides corresponding to amino acid residues 1-20 (SEQ ID NO:1), 21-50 (SEQ ID NO:2), 51-80 (SEQ ID NO:3) or 74-103 (SEQ ID NO:4) of murine SAA2.1, respectively. Following 3 hours incubation with the above media, [^14C]-oleate was added and the cells were incubated for another 3 hour period (Mendez et al. J. Clin. Invest. 1994 94:1698-1705; Oram et al. Arterioscler. Thromb. 1991 11:403-414). Cells were chilled on ice and washed twice with PBS-BSA and twice with PBS. After addition of [^3H]-cholesteryl oleate (6000 dpm/well) as an internal standard, the lipids were extracted from the labeled cells and analyzed by thin-layer chromatography as described by Mendez et al. (J. Clin. Invest. 1994 94:1698-1705) and Oram et al. (Arterioscler. Thromb. 1991 11:403-414). The radioactivity in appropriate spots was measured to determine the incorporation of radioactivity into cholesteryl esters as a measure of acyl CoA:cholesterol acyl transferase activity.

AANKWGRSGRDPNHFR [SEQ ID NO:28, residues 81-96 of human SAA2.1]
cholesterol export enhancing activity, time course (FIG. 9) [1]: little to no cholesterol export enhancing activity

ADQAANKWGRSGRDPNHFR [SEQ ID NO:11, residues 78-96 of human SAA2.1]
cholesterol export enhancing activity relative to the human SAA1.1 78-96 containing liposomal formulation (FIG. 9) [1]: about half

ADQEANRHGRSGKDPNYYRPPGLPAKY [SEQ ID NO:10] ([dA][dD][dQ][dE][dA][dN][dR][dH]G[dR][dS]G[dK][dD][dP][dN][dY][dY][dR][dP][dP]G[dL][dP][dA][dK][dY]) [residues 77-103 of murine SAA1.1, all D-amino acids]
duration of increase in cholesterol efflux (FIG. 12) ([2]; following oral and intravenous administration): at least 4 days | radiolabeled cholesterol exported in the plasma (FIG. 15) ([2]; non-liposome formulated, in 100 μl PBS, intravenous, 15 μg/mouse peptide or 75 μg/mouse full length protein): caused an increase in cholesterol exported in the plasma | [3H]-cholesterol efflux as plasma radioactivity (dpm) (FIG. 11) ([2]; non-liposome formulated, in PBS, intravenous, 30 to 600 μg per mouse): dose-dependent increase | efficacy on oral administration to fasted animals versus animals receiving food (FIG. 16) ([2]; non-liposome formulated, oral, 300 μg): further enhanced | cholesterol exported to the plasma at 24 hours, PBS containing 5% weight/volume glucose versus PBS (FIG. 13) ([2]; non-liposome formulated, oral, same dose): higher | efficacy with smaller volume vehicle containing the same amount of peptide (FIG. 16) ([2]; oral, 300 μg in 100 μl versus 500 μl PBS, fasted and fed mice): efficacy was enhanced

DQAANKWGRSGRDPNHFR [SEQ ID NO:26, residues 79-96 of human SAA2.1]
cholesterol export enhancing activity relative to the human SAA1.1 78-96 containing liposomal formulation (FIG. 9) [1]: about half

QAANKWGRSGRDPNHFR [SEQ ID NO:27, residues 80-96 of human SAA2.1]
cholesterol export enhancing activity, time course (FIG. 9) [1]: little to no cholesterol export enhancing activity

RSFFSFLGEAFDGARDMWRAYSD [SEQ ID NO:6, synthetic peptide, residues 1-23 of human SAA1.1 and/or SAA2.1]
[3H]-cholesterol efflux as plasma radioactivity (dpm) (FIG. 1) ([2]; intravenous liposomes containing 0.5 μM peptide, 24 hours after macrophages): promoted in vivo cholesterol export

TDMKEANWKNSDKYFHARGNYDAAQRGPGG [SEQ ID NO:2, synthetic peptide, residues 21-50 of murine SAA2.1]
rate of hydrolysis of [14C]-labeled cholesteryl oleate versus protein-free liposomes [3]: no significant differences | relative acyl CoA:cholesterol acyl transferase activity [4]: no significant effect | rate of [3H]cholesterol efflux into medium containing HDL [1]: did not cause any significant changes

VWAAEKISDGREAFQEFFGRGHEDTIADQE [SEQ ID NO:3, synthetic peptide, residues 51-80 of murine SAA2.1]
rate of hydrolysis of [14C]-labeled cholesteryl oleate versus protein-free liposomes [3]: no significant differences | relative acyl CoA:cholesterol acyl transferase activity [4]: no significant effect | rate of [3H]cholesterol efflux into medium containing HDL [1]: did not cause any significant changes

Source: patent publication US8703698B2, “Compositions and methods for treating atherosclerosis” (The University of Chicago, priority 2003, dated 2014)
